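These data come from cells grown in 96-well plates and exposed to compound for 48 hours at five concentrations. At the GI50, growth is halved.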 The source made the active and inactive calls. No stated cut-off is given here; in the data, active = GI50 up to about 1.1 µM and inactive = higher.
Experiments:
Test in all cases: growth of human tumour cells (NCI), 48 h
[1] = system: 786-0
[2] = system: A549
[3] = system: CAKI-1
[4] = system: DU-145
[5] = system: IGROV-1
[6] = system: KM-20L2
[7] = system: KM12
[8] = system: M14
[9] = system: MCF7
[10] = system: MDA-N
[11] = system: NCI/ADR-RES
[12] = system: OVCAR-4
[13] = system: SF-295
[14] = system: SF-539
[15] = system: SK-MEL-28
[16] = system: SK-MEL-5
[17] = system: SK-OV-3
[18] = system: SN12C
[19] = system: UACC-62
[20] = system: SR

Structure (SMILES) | GI50 [1] | GI50 [2] | GI50 [3] | GI50 [4] | GI50 [5] | GI50 [6] | GI50 [7] | GI50 [8] | GI50 [9] | GI50 [10] | GI50 [11] | GI50 [12] | GI50 [13] | GI50 [14] | GI50 [15] | GI50 [16] | GI50 [17] | GI50 [18] | GI50 [19] | GI50 [20]
COc1cc(/C=C/C(=O)Oc2ccccc2)ccc1C(=O)O/C=C/c1ccccc1 | > 100 µM (inactive) | > 100 µM (inactive) | > 100 µM (inactive) | > 100 µM (inactive) | > 100 µM (inactive) | > 100 µM (inactive) | > 100 µM (inactive) | > 100 µM (inactive) | > 100 µM (inactive) | > 100 µM (inactive) | > 100 µM (inactive) | > 100 µM (inactive) | > 100 µM (inactive) | > 100 µM (inactive) | > 100 µM (inactive) | > 100 µM (inactive) | > 100 µM (inactive) | > 100 µM (inactive) | > 100 µM (inactive) | –
CCCCNCCCNCCCNC(=O)c1csc(-c2csc(CCNC(=O)C(NC(=O)C(C)C(O)C(C)NC(=O)C(NC(=O)c3nc(C(CC(N)=O)NCC(N)C(N)=O)nc(N)c3C)C(OC3OC(CO)C(O)C(O)C3OC3OC(CO)C(O)C(OC(N)=O)C3O)c3c[nH]cn3)C(C)O)n2)n1 (configuration not stated) | 0.167 µM (active) | 0.386 µM (active) | 0.362 µM (active) | 11.1 µM (inactive) | 4.04 µM (inactive) | 61.5 µM (inactive) | 8.67 µM (inactive) | 1.43 µM (inactive) | 1.86 µM (inactive) | – | – | 5.75 µM (inactive) | 0.0681 µM (active) | < 0.01 µM (active) | 13.6 µM (inactive) | 0.247 µM (active) | 4.06 µM (inactive) | 2.21 µM (inactive) | 0.362 µM (active) | 6.44 µM (inactive)
CC1C2CC=CC(=O)[C@@]2(C)CCC12OCCO2 (some centres not stated) | > 100 µM (inactive) | > 100 µM (inactive) | > 100 µM (inactive) | – | > 100 µM (inactive) | 49.9 µM (inactive) | > 100 µM (inactive) | 97.1 µM (inactive) | – | – | – | > 100 µM (inactive) | > 100 µM (inactive) | > 100 µM (inactive) | > 100 µM (inactive) | 24.6 µM (inactive) | > 100 µM (inactive) | > 100 µM (inactive) | > 100 µM (inactive) | > 100 µM (inactive)
CCC(=O)N1C(=S)SC[C@H]1C(=O)OC | > 100 µM (inactive) | > 100 µM (inactive) | > 100 µM (inactive) | – | > 100 µM (inactive) | > 100 µM (inactive) | > 100 µM (inactive) | > 100 µM (inactive) | – | – | – | > 100 µM (inactive) | > 100 µM (inactive) | > 100 µM (inactive) | > 100 µM (inactive) | > 100 µM (inactive) | > 100 µM (inactive) | > 100 µM (inactive) | > 100 µM (inactive) | > 100 µM (inactive)
CCC1(c2ccncc2)CCC(=O)NC1=O (configuration not stated) [ROGLETIMIDE] | > 100 µM (inactive) | > 100 µM (inactive) | > 100 µM (inactive) | – | > 100 µM (inactive) | > 100 µM (inactive) | > 100 µM (inactive) | > 100 µM (inactive) | – | – | – | > 100 µM (inactive) | > 100 µM (inactive) | > 100 µM (inactive) | > 100 µM (inactive) | > 100 µM (inactive) | > 100 µM (inactive) | > 100 µM (inactive) | > 100 µM (inactive) | > 100 µM (inactive)
Nc1nc2[nH]cnc2c(=S)[nH]1 [THIOGUANINE] | 0.796 µM (active) | 3.63 µM (inactive) | 0.621 µM (active) | 0.776 µM (active) | 4.85 µM (inactive) | 0.782 µM (active) | 1.71 µM (inactive) | 0.56 µM (active) | 0.701 µM (active) | 1.01 µM (active) | 0.671 µM (active) | 1.45 µM (inactive) | 1.08 µM (active) | 1.05 µM (active) | 9.4 µM (inactive) | 3.5 µM (inactive) | 0.548 µM (active) | 1.31 µM (inactive) | 0.537 µM (active) | 0.182 µM (active)
O=C1C=CC(CC(=O)c2ccc3ccccc3c2)O1 (configuration not stated) | 21.6 µM (inactive) | 61.9 µM (inactive) | 62.1 µM (inactive) | – | 29.2 µM (inactive) | 20.5 µM (inactive) | 17.5 µM (inactive) | 32.2 µM (inactive) | – | – | – | 24.9 µM (inactive) | > 100 µM (inactive) | 18.9 µM (inactive) | 55.8 µM (inactive) | 59.3 µM (inactive) | 68.1 µM (inactive) | 18.8 µM (inactive) | 18.8 µM (inactive) | 30.3 µM (inactive)
Nc1nncs1 | 4080 µM (inactive) | 942 µM (inactive) | 1760 µM (inactive) | 2070 µM (inactive) | 2580 µM (inactive) | 301 µM (inactive) | 1940 µM (inactive) | 1580 µM (inactive) | 2480 µM (inactive) | 1950 µM (inactive) | 1510 µM (inactive) | 853 µM (inactive) | 2760 µM (inactive) | 3560 µM (inactive) | 1980 µM (inactive) | 2360 µM (inactive) | 151 µM (inactive) | 3040 µM (inactive) | 1910 µM (inactive) | 2000 µM (inactive)
Cc1ccccc1NC(=O)C1C(=O)N(c2ccccc2C)C(=O)/C1=N\N (configuration not stated) | > 100 µM (inactive) | > 100 µM (inactive) | > 100 µM (inactive) | – | > 100 µM (inactive) | > 100 µM (inactive) | > 100 µM (inactive) | > 100 µM (inactive) | – | – | – | > 100 µM (inactive) | > 100 µM (inactive) | > 100 µM (inactive) | > 100 µM (inactive) | > 100 µM (inactive) | > 100 µM (inactive) | > 100 µM (inactive) | > 100 µM (inactive) | > 100 µM (inactive)
